Measurements published in patent publication US6455286B1, “Psoralens for pathogen inactivation” (Cerus Corporation, priority 1997, dated 2002).
Entries after “also recorded” stand apart in the source; their conditions may differ.

How the values were obtained:
R17 = R17 bacteriophage screen (photoinactivation, plaque assay on Hfr 3000 bacteria); type: cell-based; details: for Average log Inactivation, 4 μM: compound at 4 μM; for Average log Inactivation, 4 μM / Average log Inactivation, 32 μM: 15% FBS in DMEM, UVA 1 J/cm^2, average of 1-4 replicates; for Average log Inactivation, 32 μM: compound at 32 μM
From the text: A discussion of inactivation of pathogens other than the R17 model discussed below can be found in U.S. Pat. No. 5,593,823. This reference enables the selection criteria for use in pathogen inactivation of blood products for the compounds of the present invention. The screening technique used to evaluate the compounds of the present invention is to perform a bacteriophage screen; an assay which determines nucleic acid binding of test compounds. A screen of this type, an R17 screen, is described in detail in EXAMPLE 13, below.
The R17 bacteriophage screen is believed to be predictive of HIV inactivation efficiency, as well as the efficiency of compounds against many other viruses. It is a small, single stranded RNA phage. […] Further, single stranded RNA pathogens are more difficult to inactivate because psoralens can neither intercalate between base pairs, as with double-stranded nucleic acids, nor form diadducts which function as interstrand crosslinks. Thus it is expected that when inactivation of R17 is achieved, these same conditions will cause the inactivation of many viruses and bacteria.
The R17 was grown up in Hfr 3000 bacteria, approximate titer 5×10^11. (R17 and Hfr 3000 were obtained from American Tissue Culture Collection (ATCC), Washington, D.C.) The R17 phage stock was added to a solution of 15% fetal bovine serum in DMEM to a final phage concentration of 10^8/mL. An aliquot (0.5 mL) was transferred to a 1.5 mL snap-top polyethylene tube. An aliquot (0.004-0.040 mL) of the test compound stock solution prepared in water, ethanol or dimethylsulfoxide at 0.5 mM was added to the tube. Compounds were tested at concentrations between 4 μM and 32 μM. (AMT is commercially available from HRI, Inc., Concord, Calif.; 8-MOP is commercially available from Sigma, St. Louis, Mo.). The tubes were placed in a light device similar to that described in U.S. Pat. No. 5,593,823 (Baxter Ultraviolet Irradiation System, modified #4R4440) and irradiated at a dose setting of 1 J/cm^2. Sterile 13 mL dilution tubes were prepared; each test compound required one tube with 0.4 mL of LB broth and five tubes containing 0.5 mL of LB broth. To make the dilutions, a 0.100 mL aliquot of the irradiated solution of phage and test compound was added to the first dilution tube of 0.4 mL of media then 0.020 mL of this solution was added to the second tube of 0.5 mL medium (1:25). The second solution was then diluted serially (1:25) into the remaining tubes. To each diluted sample was added 0.050 mL of Hfr 3000 bacteria cultured overnight and 3 mL of molten LB top agar and the mixed materials were poured onto LB broth plates. After the top agar hardened, the plates were incubated at 37° C. overnight. The plaque forming units were then counted the following morning and the titer of the phage remaining after phototreatment was calculated based on the dilution factors.
The following controls were run: the “phage only” in which phage was not treated with test compound and not irradiated (listed as “starting titer” in the tables below); and the “dark” control in which the phage/test compound solution was not irradiated before it was diluted and plated. A “UV only” control in which the phage was illuminated without treatment with test compound was not run with these experiments.

cell-free HIV (HIV-1) = assay: Inactivation of cell-free HIV, residual infectivity by MT-2 microtiter plaque assay; type: cell-based; details: compound at 32 μM; 1 minute irradiation 320-400 nm (20 mW/cm^2); DMEM/15% FBS
Description: Pathogen inactivation efficiency of three compounds tested in the previous example were evaluated by examining the ability of the compounds to inactivate cell-free virus (HIV). Inactivation of cell-free HIV was performed as follows.
Small aliquots of the compounds were added to stock HIV-1 to a compound concentration of 32 μM in a total of 0.5 mL. The stock HIV (10^5-10^7 plaque forming units/mL) was in DMEM/15% FBS. The 0.5 mL test aliquots were placed in 24 well polystyrene tissue culture plates and irradiated with 320-400 nm (20 mW/cm^2) for 1 minute on a device similar to the device of EXAMPLE 13. Controls included HIV-1 stock only, HIV-1 plus UVA only, and HIV-1 plus the highest concentration of each psoralen tested, with no UVA. Post irradiation, all samples were stored frozen at −70° C. until assayed for infectivity by a microtiter plaque assay. Aliquots for measurement of residual HIV infectivity in the samples were withdrawn and cultured.
Residual HIV infectivity was assayed using an MT-2 infectivity assay. (Previously described in Hanson, C. V., Crowford-Miksza, L. and Sheppard, H. W., J. Clin. Micro 28:2030 (1990)). The assay medium was 85% DMEM (with a high glucose concentration) containing 100 μg of streptomycin, 100 U of penicillin, 50 μg of gentamicin, and 1 μg of amphotericin B per mL, 15% FBS and 2 μg of Polybrene (Sigma Chemical Co., St. Louis, Mo.) per mL. Test and control samples from the inactivation procedure were diluted in a mixture of 50% assay medium and 50% normal human serum. The samples were serially diluted directly in 96-well plates (Corning Glass Works, corning, N.Y.). The plates were mixed on an oscillatory shaker for 30 seconds and incubated at 37° C. in a 5% CO2 atmosphere for 1 to 18 hours. […] After 24 to 48 hours, the orange fluorescence-stained microplaques were visualized by placing the plates on an 8,000 μW/cm^2 304 nm UV light box (Fotodyne, Inc., New Berlin, Wis.). The plaques were counted at a magnification of ×20 to ×25 through a stereomicroscope.

[1] = Ames assay / bacterial assays, absence of light; cited from earlier work
DNA = details: cited from earlier work

| SMILES | Average log Inactivation, 4 μM (R17) [log] | Average log Inactivation, 32 μM (R17) | further results |
| --- | --- | --- | --- |
| Cc1oc2c(C)c3oc(=O)cc(CN)c3cc2c1C [Compound 36, 4-aminomethyl-4′,5′,8-trimethylpsoralen] | 0.1 | 1.1 log |  |
| Cc1coc2c(C)c3oc(=O)c(CN)c(C)c3cc12.Cl [Compound 31, 3-aminomethyl-4,4′,8-trimethylpsoralen hydrochloride] | 3.1 |  | Log Kill of cell-free HIV (cell-free HIV (HIV-1)): 1.9 log |
| Cc1oc2c(C)c3oc(=O)c(CN)c(C)c3cc2c1C [Compound 34, 3-aminomethyl-4,4′,5′,8-tetramethylpsoralen] | 1.4 |  | Log Kill of cell-free HIV (cell-free HIV (HIV-1)): 3.5 log |
| Cc1oc2c(C)c3oc(=O)cc(COCCN)c3cc2c1C [Compound 38, 4-(4-Amino-2-oxa)butyl-4′,5′,8-trimethylpsoralen] | 2.2 | ≧4.0 log |  |
| Cc1oc2c(CN)c3oc(=O)cc(C)c3cc2c1C [Compound 32, 8-aminomethyl-4,4′,5′-trimethylpsoralen] | 1.1 |  | Log Kill of cell-free HIV (cell-free HIV (HIV-1)): 1.1 log |
| Cc1cc2cc3c(C)c(CCN)c(=O)oc3c(C)c2o1 [Compound 35, 3-amino ethyl-4,5′,8-trimethylpsoralen] | 1.6 |  |  |
| Cc1coc2cc3oc(=O)c(CN)cc3cc12 [Compound 41, 3-aminomethyl-4′-methylpsoralen] | 0 | 0.6 log |  |
| Cc1cc2cc3c(C)c(COCCN)c(=O)oc3c(C)c2o1 [3-(4-amino-2-oxa)butyl-4,5′,8-trimethylpsoralen] |  |  | Effectiveness of R17 inactivation relative to AMT (R17; similar inactivation at less than half the AMT concentration, data not shown): at least twice as effective as AMT |
| Cc1coc2c(C)c3oc(=O)c(COCCN)c(C)c3cc12 [Compound 37, 3-(4-amino-2-oxa)butyl-4,4′,8-trimethylpsoralen] | 4.3 | >6.5 log |  |
| Cc1coc2cc3oc(=O)cc(CN)c3cc12 [Compound 42, 4-aminomethyl-4′-methylpsoralen] | 0 | 1.2 log |  |
| Cc1oc2c(COCCN)c3oc(=O)cc(C)c3cc2c1C [Compound 40, 8-(4-amino-2-oxa)butyl-4,4′,5′-trimethylpsoralen] | 2.1 | >6.3 log |  |
| Cc1oc2cc3oc(=O)ccc3c(COCCN)c2c1C [Compound 39, 5-(4-amino-2-oxa)butyl-4′,5′-dimethylpsoralen] | 1.6 | >6.6 log |  |
| Cc1oc2c(C)c3oc(=O)cc(C)c3cc2c1CN [AMT, 4′-aminomethyl-4,5′,8-trimethylpsoralen, reference compound] | 1.6 | >6.5 log | Mutagenicity [1]: highly mutagenic; also recorded: significant levels of mutagenicity |
| Cc1cc2cc3c(C)cc(=O)oc3c(CN)c2o1.Cl [Compound 33, 8-aminomethyl-4,5′-dimethylpsoralen hydrochloride] | 0.4 | 1.7 log |  |
| COc1c2occc2cc2ccc(=O)oc12 [Compound 8-MOP, 8-methoxypsoralen] |  |  | Photoactivated binding to nucleic acids (DNA): relatively low; Mutagenicity [1]: low mutagenicity |
